Read-outs that look alike come from different tables or passages of the source.
Key:
Format in all cases: biochemical
PI3K α (p110α/p85α) = target: T1, PI3K α (p110α/p85α) (Homo sapiens, UniProt P42336); assay: PI 3-Kinase (human) HTRF assay, PI3K α; details: read-out: PI3K α IC50
T1 construct: purchased Upstate / Millipore Corporation

PI3K δ = target: T2, PI3K δ (Homo sapiens, UniProt O00329); assay: PI 3-Kinase (human) HTRF assay, PI3K δ; details: read-out: PI3K δ IC50
T2 construct: purchased Upstate / Millipore Corporation
T2 sequence (O00329 whole entry): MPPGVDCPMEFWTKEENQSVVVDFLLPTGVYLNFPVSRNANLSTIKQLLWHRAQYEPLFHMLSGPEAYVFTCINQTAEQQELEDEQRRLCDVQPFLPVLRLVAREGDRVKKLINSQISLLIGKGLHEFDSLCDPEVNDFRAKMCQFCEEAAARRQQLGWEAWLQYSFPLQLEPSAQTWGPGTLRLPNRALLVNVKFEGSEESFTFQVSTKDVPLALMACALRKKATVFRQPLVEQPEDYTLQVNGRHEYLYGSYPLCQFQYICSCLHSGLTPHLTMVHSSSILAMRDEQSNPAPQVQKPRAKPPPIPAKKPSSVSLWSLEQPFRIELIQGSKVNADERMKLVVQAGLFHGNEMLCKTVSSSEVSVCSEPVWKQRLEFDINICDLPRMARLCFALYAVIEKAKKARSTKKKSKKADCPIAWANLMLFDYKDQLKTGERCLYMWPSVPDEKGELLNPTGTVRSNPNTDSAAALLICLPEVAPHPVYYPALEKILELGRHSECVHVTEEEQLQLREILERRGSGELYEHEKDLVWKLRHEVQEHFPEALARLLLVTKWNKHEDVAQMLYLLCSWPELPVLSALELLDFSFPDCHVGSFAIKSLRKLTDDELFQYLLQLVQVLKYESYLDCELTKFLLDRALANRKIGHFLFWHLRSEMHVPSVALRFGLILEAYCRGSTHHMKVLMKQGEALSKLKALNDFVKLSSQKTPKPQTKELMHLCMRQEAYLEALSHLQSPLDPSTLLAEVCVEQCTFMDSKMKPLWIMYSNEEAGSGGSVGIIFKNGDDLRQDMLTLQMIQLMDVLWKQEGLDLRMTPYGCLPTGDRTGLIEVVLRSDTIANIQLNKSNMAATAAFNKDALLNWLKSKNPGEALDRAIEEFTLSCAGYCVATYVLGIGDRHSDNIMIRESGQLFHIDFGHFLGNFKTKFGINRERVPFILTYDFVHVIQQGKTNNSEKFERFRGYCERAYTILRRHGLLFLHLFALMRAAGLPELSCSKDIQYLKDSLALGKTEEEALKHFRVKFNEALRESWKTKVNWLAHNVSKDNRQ
T2 sequence (P27986 whole entry partner): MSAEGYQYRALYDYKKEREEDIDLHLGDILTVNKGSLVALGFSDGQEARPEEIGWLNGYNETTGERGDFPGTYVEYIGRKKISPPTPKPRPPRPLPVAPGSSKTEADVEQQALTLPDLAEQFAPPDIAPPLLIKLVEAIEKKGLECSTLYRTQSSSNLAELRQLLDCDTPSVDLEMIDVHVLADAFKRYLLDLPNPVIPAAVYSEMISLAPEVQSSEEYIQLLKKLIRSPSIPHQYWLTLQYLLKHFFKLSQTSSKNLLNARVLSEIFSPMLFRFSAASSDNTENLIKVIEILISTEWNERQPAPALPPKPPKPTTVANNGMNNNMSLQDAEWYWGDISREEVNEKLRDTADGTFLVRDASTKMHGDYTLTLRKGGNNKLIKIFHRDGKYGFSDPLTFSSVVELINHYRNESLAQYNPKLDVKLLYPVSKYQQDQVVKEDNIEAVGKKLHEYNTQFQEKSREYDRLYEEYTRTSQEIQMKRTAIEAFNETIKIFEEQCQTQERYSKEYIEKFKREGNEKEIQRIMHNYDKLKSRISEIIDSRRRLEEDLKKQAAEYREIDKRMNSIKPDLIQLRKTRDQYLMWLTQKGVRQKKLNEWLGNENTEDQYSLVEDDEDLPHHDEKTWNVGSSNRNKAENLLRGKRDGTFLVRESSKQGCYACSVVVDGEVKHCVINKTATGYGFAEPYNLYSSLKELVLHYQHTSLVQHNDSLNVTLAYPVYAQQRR

PI3K β (p110β/p85α) = target: T3, PI3K β (p110β/p85α) (Homo sapiens, UniProt P42338); assay: PI 3-Kinase (human) HTRF assay, PI3K β; details: read-out: PI3K β IC50
T3 construct: purchased Upstate / Millipore Corporation
T3 sequence (P42338 whole entry): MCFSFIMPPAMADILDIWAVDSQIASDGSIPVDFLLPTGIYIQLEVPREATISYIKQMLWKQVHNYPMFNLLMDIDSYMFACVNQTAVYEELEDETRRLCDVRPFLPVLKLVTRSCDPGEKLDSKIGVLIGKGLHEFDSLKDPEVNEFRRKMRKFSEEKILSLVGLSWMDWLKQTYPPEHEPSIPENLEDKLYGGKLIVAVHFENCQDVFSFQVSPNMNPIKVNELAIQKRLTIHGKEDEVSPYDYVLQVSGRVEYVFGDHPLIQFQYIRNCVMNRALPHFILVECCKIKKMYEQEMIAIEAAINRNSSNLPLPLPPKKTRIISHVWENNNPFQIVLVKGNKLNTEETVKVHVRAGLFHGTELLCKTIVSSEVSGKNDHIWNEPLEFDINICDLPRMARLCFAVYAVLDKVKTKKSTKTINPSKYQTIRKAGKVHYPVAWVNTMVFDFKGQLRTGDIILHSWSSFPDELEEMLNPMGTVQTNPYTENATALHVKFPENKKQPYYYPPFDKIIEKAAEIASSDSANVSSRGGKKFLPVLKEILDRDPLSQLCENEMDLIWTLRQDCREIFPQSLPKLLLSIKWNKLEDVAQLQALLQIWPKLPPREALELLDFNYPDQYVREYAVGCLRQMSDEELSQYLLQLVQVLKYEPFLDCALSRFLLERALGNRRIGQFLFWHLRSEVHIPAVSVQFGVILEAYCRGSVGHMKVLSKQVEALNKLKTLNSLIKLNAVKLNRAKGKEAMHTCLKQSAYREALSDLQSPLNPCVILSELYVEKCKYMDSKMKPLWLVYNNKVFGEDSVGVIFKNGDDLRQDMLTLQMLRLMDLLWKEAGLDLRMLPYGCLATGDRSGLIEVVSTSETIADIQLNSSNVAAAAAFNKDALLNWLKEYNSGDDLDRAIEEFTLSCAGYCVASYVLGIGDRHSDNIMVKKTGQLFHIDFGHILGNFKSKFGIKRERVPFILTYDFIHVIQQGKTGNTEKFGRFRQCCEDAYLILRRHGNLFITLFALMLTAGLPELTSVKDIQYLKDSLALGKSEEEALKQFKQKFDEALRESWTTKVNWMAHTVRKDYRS
T3 sequence (P27986 whole entry partner): as the sequence (P27986 whole entry partner) above

T1 sequence (P42336 whole entry): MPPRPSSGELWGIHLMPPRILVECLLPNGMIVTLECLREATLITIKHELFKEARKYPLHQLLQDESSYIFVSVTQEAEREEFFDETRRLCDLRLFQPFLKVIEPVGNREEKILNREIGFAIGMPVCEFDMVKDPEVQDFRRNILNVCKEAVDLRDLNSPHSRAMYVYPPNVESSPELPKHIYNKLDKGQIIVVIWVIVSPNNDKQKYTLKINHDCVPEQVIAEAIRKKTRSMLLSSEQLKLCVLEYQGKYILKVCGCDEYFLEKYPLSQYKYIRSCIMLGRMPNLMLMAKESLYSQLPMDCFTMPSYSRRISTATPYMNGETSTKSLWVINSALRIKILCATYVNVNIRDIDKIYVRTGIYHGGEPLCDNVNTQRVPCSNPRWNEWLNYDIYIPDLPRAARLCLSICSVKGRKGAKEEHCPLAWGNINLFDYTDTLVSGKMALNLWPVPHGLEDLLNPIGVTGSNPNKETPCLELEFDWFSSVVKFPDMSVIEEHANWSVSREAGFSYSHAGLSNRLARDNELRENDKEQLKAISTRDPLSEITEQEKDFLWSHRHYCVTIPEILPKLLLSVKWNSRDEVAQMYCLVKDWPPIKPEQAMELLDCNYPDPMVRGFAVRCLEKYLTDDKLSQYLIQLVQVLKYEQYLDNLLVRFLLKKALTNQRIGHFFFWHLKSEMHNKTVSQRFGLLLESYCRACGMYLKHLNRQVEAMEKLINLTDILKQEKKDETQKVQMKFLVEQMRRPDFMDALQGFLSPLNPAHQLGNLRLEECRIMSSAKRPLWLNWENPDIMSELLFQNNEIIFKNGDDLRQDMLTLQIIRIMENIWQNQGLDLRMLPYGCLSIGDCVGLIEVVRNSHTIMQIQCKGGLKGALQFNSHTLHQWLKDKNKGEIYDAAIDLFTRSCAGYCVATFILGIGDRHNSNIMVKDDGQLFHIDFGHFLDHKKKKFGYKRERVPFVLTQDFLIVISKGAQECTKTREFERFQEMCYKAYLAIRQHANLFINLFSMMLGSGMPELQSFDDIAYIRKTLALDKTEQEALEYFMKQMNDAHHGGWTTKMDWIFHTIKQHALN
T1 sequence (P27986 whole entry partner): as the sequence (P27986 whole entry partner) above

IC50 (PI3K α (p110α/p85α))	IC50 (PI3K δ)	IC50 (PI3K β (p110β/p85α))	IC50 (PI3K α (p110α/p85α); Table 4 (PI3K α inhibitors))	IC50 (PI3K δ; Table 4 (PI3K α inhibitors))	IC50 (PI3K β (p110β/p85α); Table 4 (PI3K α inhibitors))	Compound
< 1 µM	> 10 µM	> 10 µM	–	–	–	NC(=O)[C@H]1CCCN1C(=O)c1cnc2ccc(-c3ccc4oc(N)nc4c3)cn12 [Compound 260]
< 10 µM	> 10 µM	< 10 µM	–	–	–	Nc1nc2cc(-c3ccc4nnc(-c5cccnc5)n4c3)ccc2o1 [Compound 300]
< 1 µM	< 1 µM	< 10 µM	–	–	–	Nc1nc2cc(-c3ccc4ncc(C(=O)NCCN5CCCC5)n4c3)ccc2o1 [Compound 296]
< 1 µM	> 10 µM	< 1 µM	–	–	–	C[C@H]1CN(c2cnc3ccc(-c4ccc5nc(N)sc5c4)cc3n2)CCN1 [Compound 308]
< 0.1 µM	< 1 µM	< 1 µM	–	–	–	CN(C)CC(=O)N1CCC(Nc2ncnc3ccc(-c4ccc5oc(N)nc5c4)cc23)CC1 [Compound 103]
< 10 µM	> 10 µM	< 10 µM	–	–	–	CC(=O)Nc1n[nH]c2cc(-c3ccc4oc(N)nc4c3)ccc12 [Compound 430]
< 10 µM	> 10 µM	> 10 µM	–	–	–	O=C(c1cnc2ccc(-c3cncc(S(=O)(=O)Nc4ccccc4)c3)cn12)N1CCOCC1 [Compound 447]
> 10 µM	> 10 µM	> 10 µM	–	–	–	O=C(c1cnc2ccc(-c3cccc(S(=O)(=O)Nc4cc(F)ccc4F)c3)cn12)N1CCOCC1 [Compound 441]
< 1 µM	> 10 µM	> 10 µM	–	–	–	CC1(C)COCCN1C(=O)c1cnc2ccc(-c3ccc4oc(N)nc4c3)cn12 [Compound 514]
< 1 µM	> 10 µM	< 10 µM	–	–	–	CN1CCN(C(=O)c2cnc3ccc(-c4ccc5sc(N)nc5c4)cn23)CC1 [Compound 144]
< 0.1 µM	> 10 µM	< 10 µM	–	–	–	Nc1nc2cc(-c3ccc4ncc(C(=O)N5CCOCC5)n4c3)cnc2o1 [Compound 400]
> 10 µM	> 10 µM	> 10 µM	–	–	–	Nc1nc2cc(-c3nc4cc(-c5cccnc5)cnc4s3)ccc2o1 [Compound 402]
< 1 µM	< 10 µM	> 10 µM	–	–	–	CCN(CC)CCCn1cnc2ccc(-c3ccc4oc(N)nc4c3)cc2c1=O [Compound 281]
< 10 µM	> 10 µM	< 10 µM	–	–	–	CNc1nc2cc(-c3ccc4ncc(C(=O)N5CCOCC5)n4c3)ccc2o1 [Compound 406]
< 0.1 µM	< 0.1 µM	< 1 µM	–	–	–	O=C(c1cnc2ccc(-c3cnc(Cl)c(NS(=O)(=O)c4ccccc4)c3)cn12)N1CCOCC1 [Compound 451]
< 0.1 µM	< 1 µM	< 1 µM	–	–	–	Nc1nc2cc(-c3ccc4ncc(-c5cn[nH]c5)nc4c3)ccc2o1 [Compound 78]
< 0.1 µM	> 10 µM	< 1 µM	–	–	–	Nc1nc2cc(-c3ccc4ncc(C(=O)N5CCC(N)CC5)n4c3)ccc2o1 [Compound 204]
< 0.1 µM	< 0.1 µM	< 0.1 µM	–	–	–	CC(C)N1CCC(n2cnc3ccc(-c4cnc(Cl)c(NS(=O)(=O)c5ccccc5)c4)cc3c2=O)CC1 [Compound 521]
< 1 µM	< 10 µM	< 1 µM	–	–	–	CC1(C)CN(c2cnc3ccc(-c4ccc5oc(N)nc5c4)cc3n2)CCN1 [Compound 336]
< 1 µM	> 10 µM	< 1 µM	–	–	–	Nc1nc2cc(-c3ccc4nnc(-c5ccncc5)n4c3)ccc2o1 [Compound 229]

IC50 (PI3K α (p110α/p85α))	IC50 (PI3K δ)	IC50 (PI3K β (p110β/p85α))	IC50 (PI3K α (p110α/p85α); Table 4 (PI3K α inhibitors))	IC50 (PI3K δ; Table 4 (PI3K α inhibitors))	IC50 (PI3K β (p110β/p85α); Table 4 (PI3K α inhibitors))	Compound
< 0.1 µM	< 10 µM	< 10 µM	–	–	–	Nc1nc2cc(-c3ccc4ncc(C(=O)N5CCC(O)C5)n4c3)ccc2o1 (stereo not drawn) [Compound 202]
< 1 µM	< 10 µM	< 10 µM	–	–	–	Cc1cc(-c2ccc3oc(N)nc3c2)cc2c(C(=O)N3CCOCC3)cnn12 [Compound 357]
< 10 µM	> 10 µM	> 10 µM	–	–	–	Nc1nc2cc(-c3cc(F)c4ncc(C(=O)N5CCOCC5)n4c3)ccc2o1 [Compound 438]
< 0.1 µM	< 10 µM	< 1 µM	–	–	–	Cn1cc(-c2cnc3ccc(-c4ccc5oc(N)nc5c4)cc3n2)cn1 [Compound 94]
< 0.1 µM	< 1 µM	< 10 µM	–	–	–	C[C@@H]1CN(C2CN(C(=O)c3cnc4ccc(-c5ccc6oc(N)nc6c5)cn34)C2)CCN1 [Compound 511]
< 1 µM	> 10 µM	> 10 µM	–	–	–	O=C(c1cnc2ccc(-c3ccc(Cl)c(NS(=O)(=O)c4ccccc4)c3)cn12)N1CCOCC1 [Compound 459]
< 0.1 µM	> 10 µM	< 1 µM	–	–	–	Nc1nc2cc(-c3ccc4ncc(N5CCN(C6CC6)CC5)nc4c3)ccc2o1 [Compound 261]
< 0.1 µM	> 10 µM	< 10 µM	–	–	–	Nc1nc2cc(-c3ccn4ncc(C(=O)N5CCCC5)c4c3)ccc2o1 [Compound 346]
< 0.1 µM	< 0.1 µM	< 1 µM	–	–	–	Nc1nc2cc(-c3ccc4ncc(NCCCN5CCCC5)nc4c3)ccc2o1 [Compound 221]
< 1 µM	> 10 µM	< 10 µM	–	–	–	Nc1nc2c(-c3ccc4ncc(C(=O)N5CCOCC5)n4c3)cccc2o1 [Compound 496]
> 10 µM	> 10 µM	> 10 µM	–	–	–	CS(=O)(=O)Nc1nc2cc(-c3ccc4ncc(C(=O)N5CCOCC5)n4c3)ccc2o1 [Compound 405]
–	–	–	< 0.1 µM	> 10 µM	> 10 µM	C[C@H]1COCCN1C1CN(c2cnc3ccc(-c4ccc5oc(N)nc5c4)nc3c2)C1 [Compound 619]
> 10 µM	> 10 µM	> 10 µM	–	–	–	Nc1n[nH]c2cc(-c3ccc4ncc(C(=O)N5CCOCC5)n4c3)ccc12 [Compound 487]
> 10 µM	> 10 µM	> 10 µM	–	–	–	Nc1nc2cc(-c3cnc4ccc(C(=O)N5CCOCC5)cn34)ccc2o1 [Compound 541]
–	–	–	< 0.1 µM	> 10 µM	< 1 µM	Nc1nc2cc(-c3ccc4ncc(N5CCOCC5)nc4n3)ccc2o1 [Compound 553]
< 0.1 µM	< 1 µM	< 1 µM	–	–	–	CC(N)C(=O)N1CCN(c2cnc3ccc(-c4ccc5oc(N)nc5c4)cc3n2)CC1 (stereo not drawn) [Compound 134]
< 0.1 µM	< 10 µM	< 10 µM	–	–	–	CN(C(=O)c1cnc2ccc(-c3ccc4oc(N)nc4c3)cn12)C1CCOCC1 [Compound 472]
< 0.1 µM	< 0.1 µM	< 1 µM	–	–	–	O=C(c1cnc2ccc(-c3cnc(Cl)c(NS(=O)(=O)c4ccccc4F)c3)cn12)N1CCOCC1 [Compound 452]
< 0.1 µM	< 0.1 µM	< 1 µM	–	–	–	COc1ncc(-c2ccc3ncc(C(=O)N4CCOCC4)n3c2)cc1NS(=O)(=O)c1cccc(F)c1 [Compound 423]
< 10 µM	> 10 µM	> 10 µM	–	–	–	COc1ccc(-c2ccc3ncc(C(=O)N4CCOCC4)n3c2)cc1NS(=O)(=O)c1ccccc1 [Compound 455]

Compound	IC50 (PI3K α (p110α/p85α))	IC50 (PI3K δ)	IC50 (PI3K β (p110β/p85α))	IC50 (PI3K α (p110α/p85α); Table 4 (PI3K α inhibitors))	IC50 (PI3K δ; Table 4 (PI3K α inhibitors))	IC50 (PI3K β (p110β/p85α); Table 4 (PI3K α inhibitors))
C[C@@H]1CCCN1C(=O)c1cnc2ccc(-c3ccc4oc(N)nc4c3)cn12 [Compound 481]	< 0.1 µM	< 10 µM	< 10 µM	–	–	–
CN1CCN(C2CCN(c3cnc4ccc(-c5ccc6oc(N)nc6c5)cc4n3)CC2)CC1 [Compound 227]	< 0.1 µM	< 0.1 µM	< 1 µM	–	–	–
Nc1nc2cc(-c3ccc4ncc(C(=O)N5CCS(=O)(=O)CC5)n4c3)ccc2o1 [Compound 107]	< 1 µM	> 10 µM	> 10 µM	–	–	–
COc1ccc(-c2ccc3ncc(C(=O)N4CCOCC4)n3c2)cc1S(=O)(=O)Nc1ccccc1 [Compound 444]	< 10 µM	> 10 µM	> 10 µM	–	–	–
Nc1nc2cc(-c3ccc4ncc(C(=O)N5CC[C@@H](n6cccn6)C5)n4c3)ccc2o1 [Compound 477]	< 0.1 µM	< 10 µM	> 10 µM	–	–	–
NC(=O)[C@H]1CCCN1C(=O)C1CN(c2cnc3ccc(-c4ccc5oc(N)nc5c4)cc3n2)C1 [Compound 284]	< 0.1 µM	< 10 µM	< 10 µM	–	–	–
Nc1n[nH]c2c(-c3ccc4ncc(C(=O)N5CCOCC5)n4c3)cccc12 [Compound 490]	> 10 µM	> 10 µM	> 10 µM	–	–	–
C[C@H]1CN(c2cnc3ccc(-c4ccc5oc(N)nc5c4)cc3n2)CCN1 [Compound 178]	< 0.1 µM	< 1 µM	< 0.1 µM	–	–	–
C[C@H]1CN(c2cnc3cccc(-c4ccc5nc(N)oc5c4)c3n2)CCN1 [Compound 343]	> 10 µM	> 10 µM	< 10 µM	–	–	–
COc1ncc(-c2ccc3ncc(C(=O)N4CCOCC4)n3c2)cc1N [Compound 414]	< 10 µM	> 10 µM	> 10 µM	–	–	–
CC(=O)Nc1n[nH]c2ccc(-c3ccc4oc(N)nc4c3)cc12 [Compound 431]	> 10 µM	> 10 µM	> 10 µM	–	–	–
Cc1cc2oc(N)nc2cc1-c1ccc2ncc(C(=O)N3CCOCC3)n2c1 [Compound 352]	> 10 µM	> 10 µM	> 10 µM	–	–	–
NC(=O)[C@@H]1CCCN1C(=O)C1CN(c2cnc3ccc(-c4ccc5oc(N)nc5c4)cc3n2)C1 [Compound 283]	< 0.1 µM	> 10 µM	> 10 µM	–	–	–
Nc1nc2cc(-c3ccc4ncc(N5CC(N6CCNC(=O)C6)C5)nc4c3)ccc2o1 [Compound 325]	< 0.1 µM	< 10 µM	< 1 µM	–	–	–
Cc1c(-c2ccc3oc(N)nc3c2)ccc2ncc(N3CC(N4CCNCC4)C3)nc12 [Compound 386]	< 0.1 µM	> 10 µM	> 10 µM	–	–	–
Nc1nc2cc(-c3ccc4[nH]nc(N)c4c3)ccc2o1 [Compound 427]	> 10 µM	> 10 µM	> 10 µM	–	–	–
Nc1nc2cc(-c3ccc4ncn(C5CCNCC5)c(=O)c4c3)ccc2o1 [Compound 75]	< 0.1 µM	> 10 µM	< 10 µM	–	–	–

From patent publication US20150087627A1, “COMBINATION OF KINASE INHIBITORS AND USES THEREOF” (Intellikine LLC, priority 2011, published 2015)
